Assays:
[1] = molecular target: T1, GAL4-PPAR γ chimeric nuclear receptor (human PPAR γ ligand binding domain) (Homo sapiens, UniProt P37231); assay: PPAR γ transactivation assay by transient gene transfer (GAL4-PPAR γ chimeric receptor, luciferase reporter, HEK293EBNA cells); type: cell-based; settings: concentration showing 50% of efficacy (maximum activity rate relative to pioglitazone = 100%), 24 hr
T1 construct: expressed in transfected cells; host or cells: HEK293EBNA cells, transient transfection with SuperFect
T1 sequence (P37231 174-475 isoform P37231-2): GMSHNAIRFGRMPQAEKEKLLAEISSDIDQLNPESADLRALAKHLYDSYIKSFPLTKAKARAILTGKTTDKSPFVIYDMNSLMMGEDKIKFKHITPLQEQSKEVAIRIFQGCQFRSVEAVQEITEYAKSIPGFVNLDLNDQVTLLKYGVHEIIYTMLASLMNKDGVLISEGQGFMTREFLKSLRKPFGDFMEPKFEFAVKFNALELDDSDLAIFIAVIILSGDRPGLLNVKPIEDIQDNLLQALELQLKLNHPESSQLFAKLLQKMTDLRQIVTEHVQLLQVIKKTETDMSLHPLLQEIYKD
Procedure: The agonist activity of the test compound to PPAR γ was determined by a transactivation assay method using a chimeric nuclear receptor of a DNA binding region of a yeast transcription factor GAL4 and a PPAR γ ligand binding region. Specifically, the PPAR γ agonist activity of the test compound was evaluated by the following method based on the method of Lehmann et al. (J Biol. Chem., 1995, vol. 270, page 12953).
HEK293EBNA cells cultured in Dulbecco's Modified Eagle medium (Invitrogen) containing 10 v/v % fetal bovine serum (Invitrogen) were used. 30 mL of the above-mentioned cells (density: 1×10^5 cells/mL) were inoculated in a […] (Iwaki Glass), and cultured overnight. Using SuperFect Transfection Reagent (QIAGEN), a plasmid expressing a GAL4-PPAR γ chimeric nuclear receptor fusing 174-475 amino acids, which are human PPAR γ ligand binding domain, and 1-147 amino acids, which are GAL4 DNA binding domain, and a reporter plasmid expressing a GAL4 responsive luciferase were transiently introduced into the cells at a proportion of 4:1. After 5 hr from transfection, the cells were detached from the culture dish, and the detached cells (density: 2×10^4 cells/mL) were inoculated by 100 μL in each well of a 96 well white plate (SUMITOMO BAKELITE), and cultured overnight. The medium was removed, the test compound diluted in various concentrations with serum-free Dulbecco's Modified Eagle medium was added by 100 μL, and the mixture was reacted under a 5% carbon dioxide gas stream (5% CO2) at 37° C. for 24 hr. On the other hand, as a positive control, 10 μmol/L of pioglitazone (100 μL) was added, and the mixture was reacted under a 5% carbon dioxide gas stream (5% CO2) at 37° C. for 24 hr. As a substrate of luciferase, 100 μL of Steady-Glo (Promega) was added to each well and the mixture was thoroughly stirred. Immediately thereafter, the chemical luminescence due to luciferase was measured using TopCount NTX (Packard).
The agonist activity (activity rate (%)) of the test compound to PPAR γ was calculated according to the following formula, as a relative activity when the agonist activity on addition of pioglitazone ([…]) was 100%.

[2] = Metabolic stability evaluation in human liver microsome; type: in vitro ADME; settings: liver microsomes, pH 7.4; human liver microsome 0.2 mg/mL protein, test compound 1 μmol/L, β-NADPH, 37° C., 30 min; average of two samples; read-out: hCLint (converted)
Procedure: Human liver microsome (pool of 50 donors) was purchased from XenoTech. A reaction mixture containing phosphate buffer (100 mmol/L, pH 7.4), ethylenediamine tetraacetic acid (0.1 mmol/L), magnesium chloride (6 mmol/L), human liver microsome (0.2 mg/mL protein) and test compound (1 μmol/L) was prepared. The reaction mixture was preincubated at 37° C. for 5 min, β-NADPH (1 mmol/L) was added and the mixture was incubated at 37° C. for 30 min. The protein was removed with acetonitrile from the sample after the reaction and the sample was measured by LC-MS/MS. The ratio of the organic solvent in the reaction mixture was set to about 0.5%, and the reaction was performed in 2 samples.
The elimination rate constant (ke) was calculated from the linear regression of the logarithm plot of the residual ratio of the test compound and at 30 min after the reaction, and the liver inherent clearance (Cint) was calculated by the following formula.
[formula] ke: elimination rate constant (1/h) a: concentration (mg/mL) of liver microsome in the reaction mixture b: liver microsome amount per liver unit weight (32.3 mg/g liver) c: liver weight per unit body weight (25.7 g liver/kg body weight) Each test compound was tested in two samples, and the average thereof was calculated.

## C/C(=C1/c2ccc(Cn3c(C4CC4)nc4ccccc43)cc2COc2cc(F)ccc21)c1noc(=O)[nH]1 [Compound 1d, (E)-3-(1-{8-[(2-cyclopropyl-1H-benzo[d]imidazol-1-yl)methyl]-3-fluorodibenzo[b,e]oxepin-11(6H)-ylidene}ethyl)-1,2,4-oxadiazol-5(4H)-one]
[1]
  EC50: 9 nM
[2]
  CLint scaled at 1 μmol/L: 23.3 mL/min/kg

## CCCc1nc2ccccc2n1Cc1ccc2c(c1)COc1c(ccc(F)c1F)/C2=C(\C)c1noc(=O)[nH]1 [Compound 7a, (E)-3-(1-{3,4-difluoro-8-[(2-propyl-1H-benzo[d]imidazol-1-yl)methyl]dibenzo[b,e]oxepin-11(6H)-ylidene}ethyl)-1,2,4-oxadiazol-5(4H)-one]
[1]
  EC50: 27.7 nM
[2]
  CLint scaled at 1 μmol/L: 48.3 mL/min/kg

## C/C(=C1/c2ccc(Cc3c(C4CC4)nc4cc(F)ccn34)cc2COc2cc(F)ccc21)c1noc(=O)[nH]1 [Compound 10c, (E)-3-(1-{8-[(2-cyclopropyl-7-fluoroimidazo[1,2-a]pyridin-3-yl)methyl]-3-fluorodibenzo[b,e]oxepin-11(6H)-ylidene}ethyl)-1,2,4-oxadiazol-5(4H)-one]
[1]
  EC50: 12.7 nM
[2]
  CLint scaled at 1 μmol/L: 65 mL/min/kg

## CCCc1nc(C)nc(N2CCC2)c1Cc1ccc2c(c1)COc1cc(F)ccc1/C2=C(\C)c1noc(=O)[nH]1 [Compound 13g, (E)-3-[1-(8-{[4-(azetidin-1-yl)-2-methyl-6-propylpyrimidin-5-yl]methyl}-3-fluorodibenzo[b,e]oxepin-11(6H)-ylidene)ethyl]-1,2,4-oxadiazol-5(4H)-one]
[1]
  EC50: 209 nM
[2]
  CLint scaled at 1 μmol/L: 65 mL/min/kg

## COCc1nc2ccccn2c1Cc1ccc2c(c1)COc1cc(F)ccc1/C2=C(\C)c1noc(=O)[nH]1 [Compound 8f, (E)-3-[1-(3-fluoro8-{[2-(methoxymethyl)imidazo[1,2-a]pyridin-3-yl]methyl}dibenzo[b,e]oxepin-11(6H)-ylidene)ethyl]-1,2,4-oxadiazol-5(4H)-one]
[1]
  EC50: 31.7 nM
[2]
  CLint scaled at 1 μmol/L: 16.7 mL/min/kg

## C/C(=C1/c2ccc(Cc3c(C4CC4)nc4c(Cl)cccn34)cc2COc2cc(F)ccc21)c1noc(=O)[nH]1 [Compound 8a, (E)-3-(1-{8-[(8-chloro-2-cyclopropylimidazo[1,2-a]pyridin-3-yl)methyl]-3-fluorodibenzo[b,e]oxepin-11(6H)-ylidene}ethyl)-1,2,4-oxadiazol-5(4H)-one]
[1]
  EC50: 4.2 nM
[2]
  CLint scaled at 1 μmol/L: 36.7 mL/min/kg

## C/C(=C1/c2ccc(Cc3c(C4CCOC4)nc4cc(F)ccn34)cc2COc2cc(F)ccc21)c1noc(=O)[nH]1 (stereo not shown) [Compound 14j, (E)-3-(1-{8-[(7-fluoro-2-(tetrahydrofuran-3-yl)imidazo[1,2-a]pyridin-3-yl)methyl]-3-fluorodibenzo[b,e]oxepin-11(6H)-ylidene}ethyl)-1,2,4-oxadiazol-5(4H)-one]
[1]
  EC50: 83 nM
[2]
  CLint scaled at 1 μmol/L: 11.3 mL/min/kg

## C/C(=C1/c2ccc(Cc3c(C(C)C)nc4ccccn34)cc2COc2cc(F)ccc21)c1noc(=O)[nH]1 [Compound 8c, (E)-3-(1-{3-fluoro-8-[(2-isopropylimidazo[1,2-a]pyridin-3-yl)methyl]dibenzo[b,e]oxepin-11(6H)-ylidene}ethyl)-1,2,4-oxadiazol-5(4H)-one]
[1]
  EC50: 33.3 nM
[2]
  CLint scaled at 1 μmol/L: 50 mL/min/kg

## C/C(=C1/c2ccc(Cc3c(C4CC4)nc4ccccn34)cc2COc2cc(F)ccc21)c1noc(=O)[nH]1 [Compound 8b, (E)-3-(1-{8-[(2-cyclopropylimidazo[1,2-a]pyridin-3-yl)methyl]-3-fluorodibenzo[b,e]oxepin-11(6H)-ylidene}ethyl)-1,2,4-oxadiazol-5(4H)-one]
[1]
  EC50: 27.7 nM
[2]
  CLint scaled at 1 μmol/L: 40 mL/min/kg

## O=c1[nH]c(/C(=C2\c3ccc(Cc4c(C5CC5)nc5c(Cl)cccn45)cc3COc3cc(F)ccc32)C2CC2)no1 [Compound 12a, (E)-3-({8-[(8-chloro-2-cyclopropylimidazo[1,2-a]pyridin-3-yl)methyl]-3-fluorodibenzo[b,e]oxepin-11(6H)-ylidene}(cyclopropyl)methyl)-1,2,4-oxadiazol-5(4H)-one]
[1]
  EC50: 18.8 nM
[2]
  CLint scaled at 1 μmol/L: 78.3 mL/min/kg

## CCCc1nc2ccccc2n1Cc1ccc2c(c1)COc1cc(F)c(F)cc1/C2=C(\C)c1noc(=O)[nH]1 [Compound 6a, (E)-3-(1-{2,3-difluoro-8-[(2-propyl-1H-benzo[d]imidazol-1-yl)methyl]dibenzo[b,e]oxepin-11(6H)-ylidene}ethyl)-1,2,4-oxadiazol-5(4H)-one]
[1]
  EC50: 11.5 nM
[2]
  CLint scaled at 1 μmol/L: 33.3 mL/min/kg

## C/C(=C1/c2ccc(Cc3c(C4CC4)nc4cc(Cl)ccn34)cc2COc2cc(F)ccc21)c1noc(=O)[nH]1 [Compound 10a, (E)-3-(1-{8-[(7-chloro-2-cyclopropylimidazo[1,2-a]pyridin-3-yl)methyl]-3-fluorodibenzo[b,e]oxepin-11(6H)-ylidene}ethyl)-1,2,4-oxadiazol-5(4H)-one]
[1]
  EC50: 6.4 nM
[2]
  CLint scaled at 1 μmol/L: 102 mL/min/kg

## C/C(=C1/c2ccc(Cn3c(C4CCC4)nc4nc(F)ccc43)cc2COc2cc(F)ccc21)c1noc(=O)[nH]1 [Compound 3i, (E)-3-(1-{8-[(2-cyclobutyl-5-fluoro-1H-imidazo[4,5-b]pyridin-1-yl)methyl]-3-fluorodibenzo[b,e]oxepin-11(6H)-ylidene}ethyl)-1,2,4-oxadiazol-5(4H)-one]
[1]
  EC50: 8.5 nM
[2]
  CLint scaled at 1 μmol/L: 21.7 mL/min/kg

## COCc1nc2cscc2n1Cc1ccc2c(c1)COc1cc(F)ccc1/C2=C(\C)c1noc(=O)[nH]1 [Compound 13d, (E)-3-[1-(3-fluoro-8-{[2-(methoxymethyl)-1H-thieno[3,4-d]imidazol-1-yl]methyl}dibenzo[b,e]oxepin-11(6H)-ylidene)ethyl]-1,2,4-oxadiazol-5(4H)-one]
[1]
  EC50: 36.7 nM
[2]
  CLint scaled at 1 μmol/L: 26.7 mL/min/kg

## C#Cc1ccn2c(Cc3ccc4c(c3)COc3cc(F)ccc3/C4=C(\C)c3noc(=O)[nH]3)c(C)nc2c1 [Compound 14h, (E)-3-(1-{8-[(7-ethynyl-2-methylimidazo[1,2-a]pyridin-3-yl)methyl]-3-fluorodibenzo[b,e]oxepin-11(6H)-ylidene}ethyl)-1,2,4-oxadiazol-5(4H)-one]
[1]
  EC50: 304 nM
[2]
  CLint scaled at 1 μmol/L: 36.7 mL/min/kg

## C/C(=C1/c2ccc(Cc3c(C4CC4)nc4nc(C(F)(F)F)ccn34)cc2COc2cc(F)ccc21)c1noc(=O)[nH]1 [Compound 11h, (E)-3-[1-(8-{[2-cyclopropyl-7-(trifluoromethyl)imidazo[1,2-a]pyrimidin-3-yl]methyl}-3-fluorodibenzo[b,e]oxepin-11(6H)-ylidene)ethyl]-1,2,4-oxadiazol-5(4H)-one]
[1]
  EC50: 19 nM
[2]
  CLint scaled at 1 μmol/L: 90 mL/min/kg

## C/C(=C1/c2ccc(Cc3c(C#N)nc4cc(F)ccn34)cc2COc2cc(F)ccc21)c1noc(=O)[nH]1 [Compound 14i, (E)-3-(1-{8-[(2-cyano-7-fluoroimidazo[1,2-a]pyridin-3-yl)methyl]-3-fluorodibenzo[b,e]oxepin-11(6H)-ylidene}ethyl)-1,2,4-oxadiazol-5(4H)-one]
[1]
  EC50: 239 nM
[2]
  CLint scaled at 1 μmol/L: 127 mL/min/kg

From patent US8969345B2, “Dibenzooxepin derivative” (Kyowa Hakko Kirin Co., Ltd., priority 2011, dated 2015)
